ChEMBL document CHEMBL5352447, “Development of [1,2]oxazoloisoindoles tubulin polymerization inhibitors: Further chemical modifications and potential therapeutic effects against lymphomas” (Eur J Med Chem, 2022)

Tested on: IGROV-1
Experiment: Antiproliferative activity against human IGROV-1 cells assessed as cell growth inhibition incubated for 72 hrs by MTT assay
Assay type: functional
Conditions: not given

Question: With COc1ccc(Cn2cc3c(c2-c2cc(OC)c(OC)c(OC)c2)CCc2c(CO)noc2-3)cc1 as the compound, how does the GI50 read?
Answer: 490 nM

Tested on: OVCAR-4
Experiment: Antiproliferative activity against human OVCAR-4 cells assessed as cell growth inhibition incubated for 72 hrs by MTT assay
Assay type: functional
Conditions: not given

Question: For COc1ccc(Cn2cc3c(c2-c2cc(OC)c(OC)c(OC)c2)CCc2c(CO)noc2-3)cc1, which GI50 is on record?
Answer: 5440 nM

Tested on: OVCAR-5
Experiment: Antiproliferative activity against human OVCAR-5 cells assessed as cell growth inhibition incubated for 72 hrs by MTT assay
Assay type: functional
Conditions: not given

Question: For COc1ccc(Cn2cc3c(c2-c2cc(OC)c(OC)c(OC)c2)CCc2c(CO)noc2-3)cc1, which GI50 is on record?
Answer: 710 nM

Tested on: OVCAR-8
Experiment: Antiproliferative activity against human OVCAR-8 cells assessed as cell growth inhibition incubated for 72 hrs by MTT assay
Assay type: functional
Conditions: not given

Question: Which GI50 does the source give for COc1ccc(Cn2cc3c(c2-c2cc(OC)c(OC)c(OC)c2)CCc2c(CO)noc2-3)cc1 here?
Answer: 380 nM

Tested on: NCI/ADR-RES
Experiment: Antiproliferative activity against human NCI-ADR-RES cells assessed as cell growth inhibition incubated for 72 hrs by MTT assay
Assay type: functional
Conditions: not given

Question: For COc1ccc(Cn2cc3c(c2-c2cc(OC)c(OC)c(OC)c2)CCc2c(CO)noc2-3)cc1, which GI50 is on record?
Answer: 260 nM

Tested on: SK-OV-3
Experiment: Antiproliferative activity against human SK-OV-3 cells assessed as cell growth inhibition incubated for 72 hrs by MTT assay
Assay type: functional
Conditions: not given

Question: With COc1ccc(Cn2cc3c(c2-c2cc(OC)c(OC)c(OC)c2)CCc2c(CO)noc2-3)cc1 as the compound, how does the GI50 read?
Answer: 370 nM

Tested on: A498
Experiment: Antiproliferative activity against human A498 cells assessed as cell growth inhibition incubated for 72 hrs by MTT assay
Assay type: functional
Conditions: not given

Question: With COc1ccc(Cn2cc3c(c2-c2cc(OC)c(OC)c(OC)c2)CCc2c(CO)noc2-3)cc1 as the compound, how does the GI50 read?
Answer: 280 nM

Tested on: ACHN
Experiment: Antiproliferative activity against human ACHN cells assessed as cell growth inhibition incubated for 72 hrs by MTT assay
Assay type: functional
Conditions: not given

Question: Which GI50 does the source give for COc1ccc(Cn2cc3c(c2-c2cc(OC)c(OC)c(OC)c2)CCc2c(CO)noc2-3)cc1 here?
Answer: 620 nM

Tested on: RXF 393
Experiment: Antiproliferative activity against human RXF 393 cells assessed as cell growth inhibition incubated for 72 hrs by MTT assay
Assay type: functional
Conditions: not given

Question: For COc1ccc(Cn2cc3c(c2-c2cc(OC)c(OC)c(OC)c2)CCc2c(CO)noc2-3)cc1, which GI50 is on record?
Answer: 160 nM

Tested on: SN12C
Experiment: Antiproliferative activity against human SN12C cells assessed as cell growth inhibition incubated for 72 hrs by MTT assay
Assay type: functional
Conditions: not given

Question: With COc1ccc(Cn2cc3c(c2-c2cc(OC)c(OC)c(OC)c2)CCc2c(CO)noc2-3)cc1 as the compound, how does the GI50 read?
Answer: 720 nM

Tested on: TK-10
Experiment: Antiproliferative activity against human TK-10 cells assessed as cell growth inhibition incubated for 72 hrs by MTT assay
Assay type: functional
Conditions: not given

Question: Which GI50 does the source give for COc1ccc(Cn2cc3c(c2-c2cc(OC)c(OC)c(OC)c2)CCc2c(CO)noc2-3)cc1 here?
Answer: 17700 nM

Tested on: UO-31
Experiment: Antiproliferative activity against human UO-31 cells assessed as cell growth inhibition incubated for 72 hrs by MTT assay
Assay type: functional
Conditions: not given

Question: Which GI50 does the source give for COc1ccc(Cn2cc3c(c2-c2cc(OC)c(OC)c(OC)c2)CCc2c(CO)noc2-3)cc1 here?
Answer: 580 nM

Tested on: PC-3
Experiment: Antiproliferative activity against human PC-3 cells assessed as cell growth inhibition incubated for 72 hrs by MTT assay
Assay type: functional
Conditions: not given

Question: Which GI50 does the source give for COc1ccc(Cn2cc3c(c2-c2cc(OC)c(OC)c(OC)c2)CCc2c(CO)noc2-3)cc1 here?
Answer: 270 nM

Tested on: DU-145
Experiment: Antiproliferative activity against human DU-145 cells assessed as cell growth inhibition incubated for 72 hrs by MTT assay
Assay type: functional
Conditions: not given

Question: With COc1ccc(Cn2cc3c(c2-c2cc(OC)c(OC)c(OC)c2)CCc2c(CO)noc2-3)cc1 as the compound, how does the GI50 read?
Answer: 390 nM

Tested on: MCF7
Experiment: Antiproliferative activity against human MCF7 cells assessed as cell growth inhibition incubated for 72 hrs by MTT assay
Assay type: functional
Conditions: not given

Question: For COc1ccc(Cn2cc3c(c2-c2cc(OC)c(OC)c(OC)c2)CCc2c(CO)noc2-3)cc1, which GI50 is on record?
Answer: 90 nM

Tested on: MDA-MB-231
Experiment: Antiproliferative activity against human MDA-MB-231 cells assessed as cell growth inhibition incubated for 72 hrs by MTT assay
Assay type: functional
Conditions: not given

Question: For COc1ccc(Cn2cc3c(c2-c2cc(OC)c(OC)c(OC)c2)CCc2c(CO)noc2-3)cc1, which GI50 is on record?
Answer: 630 nM

Tested on: BT-549
Experiment: Antiproliferative activity against human BT-549 cells assessed as cell growth inhibition incubated for 72 hrs by MTT assay
Assay type: functional
Conditions: not given

Question: For COc1ccc(Cn2cc3c(c2-c2cc(OC)c(OC)c(OC)c2)CCc2c(CO)noc2-3)cc1, which GI50 is on record?
Answer: 490 nM

Tested on: VL51
Experiment: Antiproliferative activity against human VL51 cells assessed as proliferating cells at 1 uM incubated for 72 hrs by MTT assay relative to control
Assay type: functional
Conditions: not given

Question: For COc1ccc(Cn2cc3c(c2-c2cc(OC)c(OC)c(OC)c2)CCc2c(CO)noc2-3)cc1, which Activity is on record?
Answer: 51.3%

Tested on: SU-DHL10
Experiment: Antiproliferative activity against human SU-DHL-10 cells assessed as proliferating cells at 1 uM incubated for 72 hrs by MTT assay relative to control
Assay type: functional
Conditions: not given

Question: With COc1ccc(Cn2cc3c(c2-c2cc(OC)c(OC)c(OC)c2)CCc2c(CO)noc2-3)cc1 as the compound, how does the Activity read?
Answer: 62.1%

Tested on: VL51
Experiment: Antiproliferative activity against human VL51 cells assessed as inhibition of cell proliferation incubated for 72 hrs by MTT assay
Assay type: functional, cell-based
Conditions: VL51, 72 h

Question: With COc1ccc(Cn2cc3c(c2-c2cc(OC)c(OC)c(OC)c2)CCc2c(CO)noc2-3)cc1 as the compound, how does the IC50 read?
Answer: 1600 nM

Tested on: not listed separately
Experiment: Antiproliferative activity against human MINO cells assessed as inhibition of cell proliferation incubated for 72 hrs by MTT assay
Assay type: functional, cell-based
Conditions: not given

Question: Which IC50 does the source give for COc1ccc(Cn2cc3c(c2-c2cc(OC)c(OC)c(OC)c2)CCc2c(CO)noc2-3)cc1 here?
Answer: 1400 nM

Tested on: not listed separately
Experiment: Antiproliferative activity against human HBL1 cells assessed as inhibition of cell proliferation incubated for 72 hrs by MTT assay
Assay type: functional, cell-based
Conditions: HBL1, 72 h

Question: With COc1ccc(Cn2cc3c(c2-c2cc(OC)c(OC)c(OC)c2)CCc2c(CO)noc2-3)cc1 as the compound, how does the IC50 read?
Answer: 1700 nM

Tested on: SU-DHL10
Experiment: Antiproliferative activity against human SU-DHL-10 cells assessed as inhibition of cell proliferation incubated for 72 hrs by MTT assay
Assay type: functional, cell-based
Conditions: SU-DHL10, 72 h

Question: For COc1ccc(Cn2cc3c(c2-c2cc(OC)c(OC)c(OC)c2)CCc2c(CO)noc2-3)cc1, which IC50 is on record?
Answer: 1800 nM
